Assay results published in patent US11999727B2 (Tango Therapeutics, Inc., priority 2020, dated 2024).
Where two headings read alike, the source gives them in different places.

Legend:
PRMT5 [1] = target: T1, PRMT5 (Homo sapiens, UniProt O14744); assay: PRMT5 biochemical IC50 assay with SAM as cofactor; conditions: PRMT5, SAM as cofactor; read-out: SAM IC50
T1 construct: purchased Viva (custom protein)

PRMT5 [2] = target: T1, PRMT5; assay: PRMT5 biochemical IC50 assay with no cofactor; conditions: PRMT5, no cofactor; read-out: No Cofactor/ rel IC50
From the text: Table 1 indicates IC50 values (μM) against PRMT5 for exemplary compounds in the presence of SAM as cofactor, with no cofactor, and with MTA as cofactor, respectively (columns 4-6). […] Ki values can be calculated from the IC50 values as described in the Examples section. As detailed in the Examples section, for the assay performed in the presence of SAM, IC50=Ki×1.5 (Ki=IC50/1.5).

PRMT5 [3] = target: T1, PRMT5; assay: PRMT5 biochemical IC50 assay with MTA as cofactor; conditions: PRMT5, MTA as cofactor; read-out: MTA IC50
[4] = tested on: HAP1 MTAP-intact cell line; assay: SDMA in-cell western assay, HAP1 MTAP-intact; format: cell-based; conditions: HAP1 MTAP-intact, read-out: MTAP HAP1 intact IC50
How it was run: (§1)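 Readout: in-cell western detection of SDMA. Cells: HAP1 expressing endogenous MTAP and an MTAP-null HAP1 counterpart. Output: IC50.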

[5] = tested on: HAP1 MTAP-deleted cell line; assay: SDMA in-cell western assay, HAP1 MTAP-deleted; format: cell-based; conditions: for IC50: HAP1 MTAP-deleted, read-out: HAP 1 MTAP deleted IC50; for MTAP intact/deleted ratio: IC50 ratio HAP1 MTAP-intact / HAP1 MTAP-deleted
How it was run: as §1

[6] = tested on: HAP1 MTAP-deleted cell line; assay: Viability assay, MTAP-deleted cell line; format: cell-based; conditions: MTAP-deleted cell line, read-out: HAP1 MTAP deleted viability
From the text: Table 1 additionally indicates IC50 values in a viability assay for the MTAP-deleted cell line (column 10), indicating the effect of treatment with compound on cell survival.

[7] = Homo sapiens, HAP1, SDMA in-cell western
[8] = Homo sapiens, HAP1, viability assay

T1 sequence (O14744 whole entry): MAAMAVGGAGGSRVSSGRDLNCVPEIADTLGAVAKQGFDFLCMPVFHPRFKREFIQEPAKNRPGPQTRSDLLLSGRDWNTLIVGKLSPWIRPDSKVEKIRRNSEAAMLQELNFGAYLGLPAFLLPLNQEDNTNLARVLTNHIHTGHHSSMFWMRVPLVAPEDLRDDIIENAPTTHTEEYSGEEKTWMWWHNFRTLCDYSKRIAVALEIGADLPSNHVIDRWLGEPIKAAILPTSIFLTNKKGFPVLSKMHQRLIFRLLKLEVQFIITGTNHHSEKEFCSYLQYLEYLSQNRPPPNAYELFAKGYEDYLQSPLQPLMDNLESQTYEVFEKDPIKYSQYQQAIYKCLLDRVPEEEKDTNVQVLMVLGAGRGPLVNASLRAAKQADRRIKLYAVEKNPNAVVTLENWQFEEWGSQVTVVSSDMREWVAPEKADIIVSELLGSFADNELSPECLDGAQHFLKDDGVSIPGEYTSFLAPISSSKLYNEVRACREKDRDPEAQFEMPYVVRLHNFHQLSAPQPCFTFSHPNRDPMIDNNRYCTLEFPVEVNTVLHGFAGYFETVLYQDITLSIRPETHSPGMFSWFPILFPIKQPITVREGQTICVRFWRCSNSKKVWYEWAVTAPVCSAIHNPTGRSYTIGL
T1 sequence (Q9BQA1 whole entry partner): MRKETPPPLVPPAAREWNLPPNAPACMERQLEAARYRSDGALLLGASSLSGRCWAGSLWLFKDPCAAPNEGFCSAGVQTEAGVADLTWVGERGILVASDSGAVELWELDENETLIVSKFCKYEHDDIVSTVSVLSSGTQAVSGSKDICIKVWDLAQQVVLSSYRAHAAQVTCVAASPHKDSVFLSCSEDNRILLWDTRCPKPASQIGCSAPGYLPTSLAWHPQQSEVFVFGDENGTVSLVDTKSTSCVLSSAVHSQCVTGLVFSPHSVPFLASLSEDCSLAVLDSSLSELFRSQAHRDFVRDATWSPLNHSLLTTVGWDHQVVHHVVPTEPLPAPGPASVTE

| IC50 (PRMT5 [1]) | IC50 (PRMT5 [2]) | IC50 (PRMT5 [3]) | IC50 [4, 7] | IC50 [5, 7] | IC50 ([4]; SDMA in-cell western) | IC50 ([5]; SDMA in-cell western) | SMILES | MTAP intact/deleted ratio ([5]; SDMA in-cell western) | IC50 ([6]; viability assay) | IC50 [6, 8] |
| --- | --- | --- | --- | --- | --- | --- | --- | --- | --- | --- |
| 50 to 500 nM | 50 to 500 nM | < 50 nM | > 1000 nM | 100 to 1000 nM | – | – | Cn1nccc1C1CCCCN1C(=O)C(=O)Nc1cncc(C(N)=O)c1 (single isomer, unassigned) [Compound 46] | A (an IC50 ratio greater than or equal to 10 fold) | > 10000 nM | – |
| > 500 nM | > 500 nM | > 500 nM | > 1000 nM | > 1000 nM | – | – | Cc1cc(NC(=O)C(=O)N2CCCC[C@H]2c2ccncc2)cnc1N (single isomer, unassigned) [Compound 47] | C (an IC50 ratio of less than 3 fold) | – | > 10000 nM |
| 50 to 500 nM | 50 to 500 nM | < 50 nM | > 1000 nM | 100 to 1000 nM | – | – | Cc1cc(NC(=O)C(=O)N2CCCC[C@@H]2c2ccncc2)cnc1N (single isomer, unassigned) [Compound 50] | B (an IC50 ratio greater than or equal to 3 fold but lower than 10 fold) | – | > 10000 nM |
| 50 to 500 nM | 50 to 500 nM | < 50 nM | > 1000 nM | 100 to 1000 nM | – | – | Cc1cc(NC(=O)C(=O)N2CCCC[C@@H]2c2ccccc2)cnc1N (single isomer, unassigned) [Compound 51] | B (an IC50 ratio greater than or equal to 3 fold but lower than 10 fold) | – | > 10000 nM |
| 50 to 500 nM | 50 to 500 nM | < 50 nM | – | – | 100 to 1000 nM | < 100 nM | Cc1cc(NC(=O)C(=O)N2CC(C)(C)CCC2c2ccccc2)cnc1N (single isomer, unassigned) [Compound 52, N-(6-amino-5-methylpyridin-3-yl)-2-(5,5-dimethyl-2-phenylpiperidin-1-yl)-2-oxoacetamide] | A (an IC50 ratio greater than or equal to 10 fold) | 1000 to 10000 nM | – |
| 50 to 500 nM | 50 to 500 nM | < 50 nM | > 1000 nM | 100 to 1000 nM | – | – | Cc1cccc([C@H]2CCCCN2C(=O)C(=O)Nc2cnc(N)c(C)c2)c1 (single isomer, unassigned) [Compound 54] | A (an IC50 ratio greater than or equal to 10 fold) | – | 1000 to 10000 nM |
| > 500 nM | > 500 nM | 50 to 500 nM | > 1000 nM | > 1000 nM | – | – | Cc1cc(NC(=O)C(=O)N2CCCC[C@H]2c2ccccc2)cnc1N (single isomer, unassigned) [Compound 55] | C (an IC50 ratio of less than 3 fold) | – | > 10000 nM |
| > 500 nM | > 500 nM | 50 to 500 nM | > 1000 nM | > 1000 nM | – | – | Cc1cccc([C@@H]2CCCCN2C(=O)C(=O)Nc2cnc(N)c(C)c2)c1 (single isomer, unassigned) [Compound 57] | C (an IC50 ratio of less than 3 fold) | – | > 10000 nM |
| > 500 nM | > 500 nM | > 500 nM | – | – | > 1000 nM | > 1000 nM | Cc1cc(NC(=O)C(=O)N2CC(C)(C)CCC2c2ccccc2)cnc1N (single isomer, unassigned) [Compound 58, N-(6-amino-5-methylpyridin-3-yl)-2-(5,5-dimethyl-2-phenylpiperidin-1-yl)-2-oxoacetamide] | C (an IC50 ratio of less than 3 fold) | > 10000 nM | – |
| > 500 nM | > 500 nM | > 500 nM | > 1000 nM | > 1000 nM | – | – | Cc1cc(NC(=O)C(=O)N2C[C@H]3CC[C@H](C3)[C@@H]2c2ccccc2)cnc1N (single isomer, unassigned) [Compound 63] | C (an IC50 ratio of less than 3 fold) | – | > 10000 nM |
| 50 to 500 nM | 50 to 500 nM | < 50 nM | > 1000 nM | < 100 nM | – | – | Cc1cc(NC(=O)C(=O)N2C[C@@H]3CC[C@@H](C3)[C@H]2c2ccccc2)cnc1N (single isomer, unassigned) [Compound 64] | A (an IC50 ratio greater than or equal to 10 fold) | – | > 10000 nM |
| 50 to 500 nM | 50 to 500 nM | 50 to 500 nM | > 1000 nM | < 100 nM | – | – | Cc1cc(NC(=O)C(=O)N2C[C@H]3CC[C@H](C3)[C@H]2c2ccccc2)cnc1N (single isomer, unassigned) [Compound 65] | A (an IC50 ratio greater than or equal to 10 fold) | – | 1000 to 10000 nM |
| 50 to 500 nM | 50 to 500 nM | 50 to 500 nM | > 1000 nM | > 1000 nM | – | – | Cc1cncc(NC(=O)C(=O)N2C[C@H](C)CC[C@H]2c2ccc(N)cc2)c1 (single isomer, unassigned) [Compound 67] | B (an IC50 ratio greater than or equal to 3 fold but lower than 10 fold) | – | > 10000 nM |
| 50 to 500 nM | 50 to 500 nM | < 50 nM | > 1000 nM | 100 to 1000 nM | – | – | Cc1cncc(NC(=O)C(=O)N2C[C@H](C)CC[C@H]2c2cccs2)c1 (single isomer, unassigned) [Compound 68] | A (an IC50 ratio greater than or equal to 10 fold) | – | > 10000 nM |
| 50 to 500 nM | 50 to 500 nM | < 50 nM | > 1000 nM | 100 to 1000 nM | – | – | Cc1cc(NC(=O)C(=O)N2CCCC[C@H]2c2cccnc2)cnc1N (single isomer, unassigned) [Compound 69] | A (an IC50 ratio greater than or equal to 10 fold) | – | > 10000 nM |
| > 500 nM | > 500 nM | > 500 nM | > 1000 nM | > 1000 nM | – | – | CC(=O)N1CCC(c2cccc(C3CCCCN3C(=O)C(=O)Nc3cncc(C)c3)c2)CC1 (single isomer, unassigned) [Compound 73] | C (an IC50 ratio of less than 3 fold) | – | > 10000 nM |
| > 500 nM | > 500 nM | 50 to 500 nM | – | – | > 1000 nM | > 1000 nM | CC(=O)N1CCC(c2cccc(C3CCCCN3C(=O)C(=O)Nc3cncc(C)c3)c2)CC1 (single isomer, unassigned) [Compound 78] | C (an IC50 ratio of less than 3 fold) | > 10000 nM | – |
| 50 to 500 nM | 50 to 500 nM | < 50 nM | > 1000 nM | 100 to 1000 nM | – | – | NC(=O)c1cncc(NC(=O)C(=O)N2CCCC[C@@H]2c2ccccc2)c1 (single isomer, unassigned) [Compound 85] | A (an IC50 ratio greater than or equal to 10 fold) | – | > 10000 nM |
| 50 to 500 nM | 50 to 500 nM | 50 to 500 nM | > 1000 nM | > 1000 nM | – | – | Cc1cncc(NC(=O)C(=O)N2C[C@@H](C)CC[C@@H]2c2cccc(Cl)c2)c1 (single isomer, unassigned) [Compound 87] | C (an IC50 ratio of less than 3 fold) | – | > 10000 nM |
| > 500 nM | > 500 nM | > 500 nM | > 1000 nM | > 1000 nM | – | – | Cc1cncc(NC(=O)C(=O)N2C[C@H](C)CC[C@H]2c2cccc(Cl)c2)c1 (single isomer, unassigned) [Compound 90] | C (an IC50 ratio of less than 3 fold) | – | > 10000 nM |
| 50 to 500 nM | > 500 nM | 50 to 500 nM | > 1000 nM | > 1000 nM | – | – | Cc1cncc(NC(=O)C(=O)N2C[C@H](C)CCC2c2cccc(F)c2)c1 (single isomer, unassigned) [Compound 93] | C (an IC50 ratio of less than 3 fold) | – | > 10000 nM |
| 50 to 500 nM | 50 to 500 nM | < 50 nM | – | < 100 nM | 100 to 1000 nM | – | CC(=O)N1CCC(c2cccc(C3CCCCN3C(=O)C(=O)Nc3cnc(N)c(C)c3)c2)CC1 (single isomer, unassigned) [Compound 94] | B (an IC50 ratio greater than or equal to 3 fold but lower than 10 fold) | 1000 to 10000 nM | – |
| 50 to 500 nM | 50 to 500 nM | < 50 nM | – | – | > 1000 nM | 100 to 1000 nM | CC(=O)N1CCC(c2cccc(C3CCCCN3C(=O)C(=O)Nc3cnc(N)c(C)c3)c2)CC1 (single isomer, unassigned) [Compound 96] | A (an IC50 ratio greater than or equal to 10 fold) | > 10000 nM | – |
